Reference: PubChem BioAssay AID1963875 (Molecular Pharmacology Branch, DTP, NCI, 2024)

Test system: KRAS-mutant PDC complex spheroid viability
Test: Anticancer human tumor 186277-243-T-J2-PDC patient-derived colon adenocarcinoma cell line growth inhibition [KRAS2]
Details: for IC50: curve of first compound; for viability, T/C: stronger effect = lower value
Procedure, shortened: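 KRAS-mutant tumor cells were grown as spheroids with HUVEC endothelial cells and human MSCs as stroma. Targeted agents were tested alone and with KRAS pathway inhibitors. Doses started at or near clinical Cmax, or 10 microM, descending half-log.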

[1] = second compound 0.1 µM, first compound 0.0316 µM
[2] = second compound 0.1 µM, first compound 0.1 µM
[3] = second compound 0.1 µM, first compound 0.316 µM
[4] = second compound 0.1 µM, first compound 1 µM
[5] = second compound 0.1 µM, first compound 3.16 µM
[6] = second compound 0.1 µM, first compound 10 µM
[7] = second compound 0.316 µM, first compound 0.0316 µM
[8] = second compound 0.316 µM, first compound 0.1 µM
[9] = second compound 0.316 µM, first compound 0.316 µM
[10] = second compound 0.316 µM, first compound 1 µM
[11] = second compound 0.316 µM, first compound 3.16 µM
[12] = second compound 0.316 µM, first compound 10 µM
[13] = second compound 1 µM, first compound 0.0316 µM
[14] = second compound 1 µM, first compound 0.1 µM
[15] = second compound 1 µM, first compound 0.316 µM
[16] = second compound 1 µM, first compound 1 µM
[17] = second compound 1 µM, first compound 3.16 µM
[18] = second compound 1 µM, first compound 10 µM
[19] = second compound 3.16 µM, first compound 0.0316 µM
[20] = second compound 3.16 µM, first compound 0.1 µM
[21] = second compound 3.16 µM, first compound 0.316 µM
[22] = second compound 3.16 µM, first compound 1 µM
[23] = second compound 3.16 µM, first compound 3.16 µM
[24] = second compound 3.16 µM, first compound 10 µM
[25] = second compound 10 µM, first compound 0.0316 µM
[26] = second compound 10 µM, first compound 0.1 µM
[27] = second compound 10 µM, first compound 0.316 µM
[28] = second compound 10 µM, first compound 1 µM
[29] = second compound 10 µM, first compound 3.16 µM
[30] = second compound 10 µM, first compound 10 µM
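For viability, T/C in this document: viability read after seven days of compound exposure; 100% = DMSO vehicle-treated spheroids so lower means less viable.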

Row | SMILES | IC50 (second compound 0.1 µM) [nM] | IC50 (second compound 0.316 µM) [nM] | IC50 (second compound 1 µM) [nM] | IC50 (second compound 3.16 µM) [nM] | IC50 (second compound 10 µM) [nM] | viability, T/C [1] [%] | viability, T/C [2] [%] | viability, T/C [3] [%] | viability, T/C [4] [%] | viability, T/C [5] [%] | viability, T/C [6] [%] | viability, T/C [7] [%] | viability, T/C [8] [%] | viability, T/C [9] [%] | viability, T/C [10] [%] | viability, T/C [11] [%] | viability, T/C [12] [%] | viability, T/C [13] [%] | viability, T/C [14] [%] | viability, T/C [15] [%] | further results
1 | COC(=O)c1ccc2c(C(=Nc3ccc(N(C)C(=O)CN4CCN(C)CC4)cc3)c3ccccc3)c(O)[nH]c2c1 + CC1OCC2(CCN(c3cnc(Sc4ccnc(N)c4Cl)c(N)n3)CC2)C1N | 2140 | 1850 | 1510 | 692 | 368 | 105 | 108 | 116 | 120 | 18 | 12.9 | 108 | 105 | 113 | 98.9 | 4.62 | 10.2 | 116 | 108 | 100 | viability, T/C [16]: 74.8%; viability, T/C [17]: 4.4%; viability, T/C [18]: 4.44%; viability, T/C [19]: 103%; viability, T/C [20]: 93.2%; viability, T/C [21]: 94%; viability, T/C [22]: 29.4%; viability, T/C [23]: 1.17%; viability, T/C [24]: 1.68%; viability, T/C [25]: 83%; viability, T/C [26]: 82%; viability, T/C [27]: 54.5%; viability, T/C [28]: 15.6%; viability, T/C [29]: 0.48%; viability, T/C [30]: 0.71%
2 | COc1cc(Nc2ncc3c(n2)-c2ccc(Cl)cc2C(c2c(F)cccc2OC)=NC3)ccc1C(=O)O + CC1OCC2(CCN(c3cnc(Sc4ccnc(N)c4Cl)c(N)n3)CC2)C1N | < 31.6 | < 31.6 | < 31.6 | < 31.6 | < 31.6 | 36 | 32.9 | 33 | 35.2 | 38.8 | 33.8 | 30.3 | 29.7 | 24.5 | 27.9 | 30.4 | 27.5 | 22.2 | 22.8 | 21.1 | viability, T/C [16]: 22.1%; viability, T/C [17]: 22.6%; viability, T/C [18]: 21.7%; viability, T/C [19]: 17.1%; viability, T/C [20]: 18%; viability, T/C [21]: 15.8%; viability, T/C [22]: 15.7%; viability, T/C [23]: 16.1%; viability, T/C [24]: 16.2%; viability, T/C [25]: 13.7%; viability, T/C [26]: 13.9%; viability, T/C [27]: 11.8%; viability, T/C [28]: 11.4%; viability, T/C [29]: 12.1%; viability, T/C [30]: 11.9%
3 | O=C(c1cc(Cc2n[nH]c(=O)c3ccccc23)ccc1F)N1CCN(C(=O)C2CC2)CC1 + CC1OCC2(CCN(c3cnc(Sc4ccnc(N)c4Cl)c(N)n3)CC2)C1N | 6480 | 6080 | 3950 | 1900 | 614 | 118 | 112 | 114 | 109 | 81 | 31.3 | 129 | 124 | 106 | 115 | 75 | 28.8 | 122 | 113 | 126 | viability, T/C [16]: 103%; viability, T/C [17]: 56.8%; viability, T/C [18]: 23.8%; viability, T/C [19]: 92.2%; viability, T/C [20]: 94.9%; viability, T/C [21]: 87.4%; viability, T/C [22]: 70.3%; viability, T/C [23]: 33.9%; viability, T/C [24]: 16.3%; viability, T/C [25]: 86.7%; viability, T/C [26]: 66%; viability, T/C [27]: 62.9%; viability, T/C [28]: 45.8%; viability, T/C [29]: 24.9%; viability, T/C [30]: 14.1%
